From patent US7612064B2, “Sulfopyrroles” (Takeda Pharmaceutical Company Limited, priority 2003, dated 2009) come the findings set out here.

Structures are written as SMILES. Where only a bound is given, the exact number is not on record here.

The test system of one assay is Jurkat. The assay can be described thus: MTS proliferation assay. It counts as cell-based, human. As to conditions: 72 h. Here is the method:
(§1) The assay is performed in 96 well tissue culture plates. […] The test compounds are added in 20 μl complete medium containing max 5% DMSO. The final compound concentrations in the assays are 10 μM, 3 μM, 1 μM and 0.3 μM, respectively. The assay plates are incubated for 72 h at culture conditions. The MTS reagent is prepared according to the manufacturer's protocol (Promega G1111). 20 μl MTS reagent are added to each well, the assay plates are quickly spun and incubated for another 3 h at culture conditions. Subsequently, the plates are shortly shacked and absorption measured with a microplate-reader at 492 nm.

A further assay deals with HeLa. Description: MTS proliferation assay. The class given is cell-based, human. As to conditions: 72 h. The protocol:
as §1
(Formazan colour is commonly taken as a measure of viable cells.)

The next assay relates to MRC5. Description: MTS proliferation assay. The following applies: MRC5, 72 h. The class given is cell-based. The protocol:
as §1

Assay [1] in a line: Hoechst 33342 nuclear staining.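 On all read-outs here: apoptotic nuclei scored 0 none 1 weak under 50% of cells 2 strong over 50% of cells.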 It counts as cell-based. The following applies: for Hoechst 33342 nuclear staining score, HeLa: HeLa cells; for Hoechst 33342 nuclear staining score, Jurkat: Jurkat cells; for Hoechst 33342 nuclear staining score, H460: H460 cells; for Hoechst 33342 nuclear staining score, Jily: Jily cells; for Hoechst 33342 nuclear staining score, MRC5: MRC5 cells. The protocol:
This assay is performed in 96 well tissue culture plates. Appropriate number of cells (adherent cells: 3-5*10^3, suspension cells: 8-10*10^3) are being seeded out in 80 μl complete medium. Adherent cells are incubated for 24 h for proper spreading out before addition of test compounds while suspension cells are immediately treated with test compounds after seeding out. The test compounds are added in 20 μl complete medium containing max 5% DMSO. […] […] The assay plates are then further incubated for 30 min and subsequently analyzed with a standard inverted fluorescence microscope.
The readout allows the determination of the fraction of apoptotic nuclei as well as other morphological criteria specific for apoptosis as a function of the treatment. The following scores are used: 0 relating to no activity, 1 relating to weak activity comprising less than 50% of the cells and score 2 relating to strong activity comprising more than 50% of the cells.

Setting [2] is: conc 0.1 (final concentrations in μM), 24 h or 48 h incubation.
[3] abbreviates: conc 0.3 (final concentrations in μM), 24 h or 48 h incubation.
The mark [4] stands for this setting: conc 1 (final concentrations in μM), 24 h or 48 h incubation.
Where [5] appears, read: conc 3 (final concentrations in μM), 24 h or 48 h incubation.
Where [6] appears, read: conc 10 (final concentrations in μM), 24 h or 48 h incubation.

Take `Cc1ccc(S(=O)(=O)n2cc(CNCCN3CCN(Cc4ccccc4)CC3)cc2-c2ccc3c(c2)OCO3)cc1` [Example 16]: the IC50 in the assay with Jurkat, in the assay on HeLa and with MRC5 was > 1 µM each time. The “Hoechst 33342 nuclear staining score, HeLa” value in assay [1] (setting [2]) is 0; in assay [1] (setting [3]), 0; in assay [1] (setting [4]) it was 0; in assay [1] (setting [5]) it was 1 (weak activity comprising less than 50% of the cells). The “Hoechst 33342 nuclear staining score, Jurkat” value in assay [1] (setting [2]), in assay [1] (setting [3]), in assay [1] (setting [4]) and in assay [1] (setting [5]) was 0 throughout.

On to `Cc1ccc(S(=O)(=O)n2cc(-c3cncnc3)cc2-c2ccc3c(c2)OCO3)cc1` [Example 46], for which the IC50 in the assay with Jurkat, in the assay on HeLa and in the assay with MRC5 was > 1 µM in each case. In addition, the “Hoechst 33342 nuclear staining score, HeLa” value in assay [1] (setting [3]), in assay [1] (setting [4]), in assay [1] (setting [5]) and in assay [1] (setting [6]) was 0 each time. Moreover, the “Hoechst 33342 nuclear staining score, Jurkat” value in assay [1] (setting [3]), in assay [1] (setting [4]), in assay [1] (setting [5]) and in assay [1] (setting [6]) was 0 each time.

Turning to `CCN(CC)CCN(C)Cc1cc(-c2ccc3c(c2)OCO3)n(S(=O)(=O)c2ccc(C)cc2)c1` [Example 19], the IC50 in the assay with Jurkat, with HeLa and in the assay on MRC5 was > 1 µM throughout. Further, the “Hoechst 33342 nuclear staining score, HeLa” value in assay [1] (setting [2]), in assay [1] (setting [3]), in assay [1] (setting [4]) and in assay [1] (setting [5]) was 0 throughout. Besides, the “Hoechst 33342 nuclear staining score, Jurkat” value in assay [1] (setting [2]), in assay [1] (setting [3]), in assay [1] (setting [4]) and in assay [1] (setting [5]) was 0 each time.

Take `Cc1ccc(S(=O)(=O)n2cc(CNCCCN3CCCC3)cc2-c2ccc3c(c2)OCO3)cc1` [Example 22]: the IC50 in the assay on Jurkat, in the assay with HeLa and with MRC5 was > 1 µM in each case. Moreover, the “Hoechst 33342 nuclear staining score, HeLa” value in assay [1] (setting [2]), in assay [1] (setting [3]), in assay [1] (setting [4]) and in assay [1] (setting [5]) was 0 each time. Moreover, the “Hoechst 33342 nuclear staining score, Jurkat” value in assay [1] (setting [2]), in assay [1] (setting [3]), in assay [1] (setting [4]) and in assay [1] (setting [5]) was 0 throughout.

Consider `CCN1CCN(CCNCc2cc(-c3ccc4c(c3)OCO4)n(S(=O)(=O)c3ccc(C)cc3)c2)CC1` [Example 15], for which the IC50 in the assay on Jurkat, with HeLa and in the assay on MRC5 was > 1 µM each time. Further, the “Hoechst 33342 nuclear staining score, HeLa” value in assay [1] (setting [2]), in assay [1] (setting [3]), in assay [1] (setting [4]) and in assay [1] (setting [5]) was 0 in each case. Besides, the “Hoechst 33342 nuclear staining score, Jurkat” value in assay [1] (setting [2]), in assay [1] (setting [3]), in assay [1] (setting [4]) and in assay [1] (setting [5]) was 0 throughout.

Regarding `Cc1ccc(S(=O)(=O)n2cc(CN3CCN(c4ncccn4)CC3)cc2-c2ccc3c(c2)OCO3)cc1` [Example 28], the IC50 in the assay with Jurkat, in the assay on HeLa and in the assay with MRC5 was > 1 µM in each case. For the same compound, the “Hoechst 33342 nuclear staining score, HeLa” value in assay [1] (setting [2]), in assay [1] (setting [3]), in assay [1] (setting [4]) and in assay [1] (setting [5]) was 0 throughout. For the same compound, the “Hoechst 33342 nuclear staining score, Jurkat” value in assay [1] (setting [2]), in assay [1] (setting [3]), in assay [1] (setting [4]) and in assay [1] (setting [5]) was 0 in each case.

For `COc1cc(-c2cc(CNc3ccc(-n4cncn4)cc3)cn2S(=O)(=O)c2ccc(C)cc2)cc(OC)c1OC` [Example 68], the IC50 (as a rule, the midpoint of a concentration-inhibition curve) with Jurkat is < 1 µM. Moreover, the IC50 in the assay on HeLa is < 1 µM. Moreover, the IC50 in the assay on MRC5 was > 1 µM. Besides, in assay [1] (conc 0.1), the “Hoechst 33342 nuclear staining score, H460” value was found to be 0; the “Hoechst 33342 nuclear staining score, HeLa” value is 0; the “Hoechst 33342 nuclear staining score, Jily” value was found to be 0; the “Hoechst 33342 nuclear staining score, Jurkat” value was 0. Moreover, in assay [1] (conc 0.1), the “Hoechst 33342 nuclear staining score, MRC5” value is given as 0 and the “Hoechst 33342 nuclear staining score, PBLs” value was determined as 0. Besides, in assay [1] (conc 0.3), the “Hoechst 33342 nuclear staining score, H460” value was determined as 0; the “Hoechst 33342 nuclear staining score, HeLa” value is on record as 0; the “Hoechst 33342 nuclear staining score, Jily” value was determined as 0; the “Hoechst 33342 nuclear staining score, Jurkat” value was 0. Besides, in assay [1] (conc 0.3), the “Hoechst 33342 nuclear staining score, MRC5” value is on record as 0 and the “Hoechst 33342 nuclear staining score, PBLs” value amounted to 0. Moreover, in assay [1] (conc 1), the “Hoechst 33342 nuclear staining score, H460” value is recorded as 2 (strong activity comprising more than 50% of the cells); the “Hoechst 33342 nuclear staining score, HeLa” value was found to be 0; the “Hoechst 33342 nuclear staining score, Jily” value is reported as 2 (strong activity comprising more than 50% of the cells); the “Hoechst 33342 nuclear staining score, Jurkat” value is 2 (strong activity comprising more than 50% of the cells). For the same compound, in assay [1] (conc 1), the “Hoechst 33342 nuclear staining score, MRC5” value worked out at 0 and the “Hoechst 33342 nuclear staining score, PBLs” value came to 0. Further, in assay [1] (conc 3), the “Hoechst 33342 nuclear staining score, H460” value is 2 (strong activity comprising more than 50% of the cells); the “Hoechst 33342 nuclear staining score, HeLa” value is reported as 2 (strong activity comprising more than 50% of the cells); the “Hoechst 33342 nuclear staining score, Jily” value was 2 (strong activity comprising more than 50% of the cells); the “Hoechst 33342 nuclear staining score, Jurkat” value was 2 (strong activity comprising more than 50% of the cells). In addition, in assay [1] (conc 3), the “Hoechst 33342 nuclear staining score, MRC5” value is given as 2 (strong activity comprising more than 50% of the cells) and the “Hoechst 33342 nuclear staining score, PBLs” value came to 0.

`Cc1ccc(S(=O)(=O)n2cc(CNCCN3CCCCC3)cc2-c2ccc3c(c2)OCO3)cc1` [Example 18]: the IC50 in the assay with Jurkat, in the assay with HeLa and in the assay with MRC5 was > 1 µM in each case. In addition, the “Hoechst 33342 nuclear staining score, HeLa” value in assay [1] (setting [2]), in assay [1] (setting [3]), in assay [1] (setting [4]) and in assay [1] (setting [5]) was 0 throughout. Moreover, the “Hoechst 33342 nuclear staining score, Jurkat” value in assay [1] (setting [2]), in assay [1] (setting [3]), in assay [1] (setting [4]) and in assay [1] (setting [5]) was 0 in each case.

On to `Cc1ccc(S(=O)(=O)n2cc(-c3cncc(C(N)=O)c3)cc2-c2ccc3c(c2)OCO3)cc1` [Example 50], for which the IC50 in the assay on Jurkat is < 1 µM; with HeLa, > 1 µM; in the assay with MRC5 it was > 1 µM. In addition, the “Hoechst 33342 nuclear staining score, HeLa” value in assay [1] (setting [2]) is listed as 0; in assay [1] (setting [3]), 0; in assay [1] (setting [4]), 0; in assay [1] (setting [5]), 2 (strong activity comprising more than 50% of the cells). In addition, the “Hoechst 33342 nuclear staining score, Jurkat” value in assay [1] (setting [2]) was 0; in assay [1] (setting [3]) it was 0; in assay [1] (setting [4]) it was 0; in assay [1] (setting [5]), 2 (strong activity comprising more than 50% of the cells).

In the case of `Cc1ccc(S(=O)(=O)n2cc(CNc3ccc(N4CCOCC4)cc3)cc2-c2ccc3c(c2)OCO3)cc1.Cl` [Example 14], the IC50 in the assay with Jurkat, with HeLa and in the assay with MRC5 was > 1 µM throughout. The “Hoechst 33342 nuclear staining score, HeLa” value in assay [1] (setting [2]) is recorded as 0; in assay [1] (setting [3]), 0; in assay [1] (setting [4]), 0; in assay [1] (setting [5]) it was 2 (strong activity comprising more than 50% of the cells). Besides, the “Hoechst 33342 nuclear staining score, Jurkat” value is given as 0 in assay [1] (setting [2]), 0 in assay [1] (setting [3]), 0 in assay [1] (setting [4]) and 2 (strong activity comprising more than 50% of the cells) in assay [1] (setting [5]).
